Here are results for four compounds from publication PMC8156508, “Ileo-Colon Targeting of the Poorly Water-Soluble Drug Celecoxib Using a pH-Dependent Coating in Combination with Self-Emulsifying Drug Delivery or Solid Dispersion Systems” (Pharmaceutics, 2021).

Series [1] can be described thus: Saturation concentration of CXB in oily phases, surfactants and co-surfactants/co-solvents. It is filed as physicochemical. The conditions noted are these: 30 °C. How it is done:
To assess the saturation concentration of CXB in different oily phases (Capryol 90, Captex 200 P, Captex 355 EP/NF, isopropyl myristate, Maisine CC, and Peceol), surfactants (Cremophor RH40, Labrasol, Tween 20, and Tween 80), and co-surfactants/co-solvents (Capmul PG-8 NF, PEG 400, Plurol oleique CC 497, and tetraglycol), an excess amount of CXB was added to the liquid excipients and placed in a tube rotator at 20 rpm and 30 °C for a day. After that, samples were centrifuged at 14,000 rpm for 20 min and the supernatant was appropriately diluted in methanol. The drug concentration was determined at 252 nm with a UV-VIS spectrophotometer Unicam UV 500A (Gemini, Apeldoorn, The Netherlands).

For series [2] the following is noted: pH 7; cited from earlier work.
Details of series [3]: method as in PMID 26146768. The note with it: cited from earlier work.
On the set-up of series [4]: method as in PMID 26401428. The note with it: cited from earlier work.
On the set-up of series [5]: method as in PMID 14603484. The conditions noted are these: rats; cited from earlier work.

Turning to `Cc1ccc(-c2cc(C(F)(F)F)nn2-c2ccc(S(N)(=O)=O)cc2)cc1` [CXB, Celecoxib], the “solubility of CXB in surfactants” value in series [1] (Tween 20, Tween 80, cremophor RH40, Labrasol ALF) was “comparable CXB solubilities”. Further, the “solubility of CXB in co-surfactants/co-solvents” value in series [1] (in PEG 400 and tetraglycol) is “highest solubility”. In addition, in series [1] (in capryol 90, among six oily phases), the “solubility of CXB in oily phases” value is “highest amount”. Also, the solubility in series [2] was 3 to 7 µg/mL. Regarding `C[C@]12C=CC(=O)C=C1CC[C@@H]1[C@@H]2[C@@H](O)C[C@@]2(C)[C@H]1CC[C@]2(O)C(=O)CO` [prednisolone], in series [3], the “effect of pH-dependent colon targeted film coating on in vitro release profile of solid SMEDDS” value is listed as “not impacted”. With `CCCCCCCCCCCCOS(=O)(=O)[O-].[Na+]` [SDS, sodium dodecyl sulfate], in series [4], the critical micelle concentration was 8 mM.

With `CC(=O)O[C@H]1C(=O)[C@@]2(C)[C@H]([C@H](OC(=O)c3ccccc3)[C@]3(O)C[C@H](OC(=O)[C@H](O)[C@@H](NC(=O)c4ccccc4)c4ccccc4)C(C)=C1C3(C)C)[C@]1(OC(C)=O)CO[C@@H]1C[C@@H]2O` [paclitaxel], the “higher bioavailability by HPMC precipitation inhibition in SEDDS” value in series [5] is reported as 5 fold.

The solubility is how much of the substance goes into solution per volume.
